According to publication PMC4819222, “CD300c is uniquely expressed on CD56^bright Natural Killer Cells and differs from CD300a upon ligand recognition” (Scientific Reports, 2016):

Legend:
[1] = target: T1, CD300c-Ig (Homo sapiens, UniProt Q08708); assay: ELISA on plates coated with pure lipid; SPR on L1-chip liposomes (Biacore T200); format: binding; details: immobilised lipid; Fc fusion protein as analyte
T1 construct: extracellular domain fused to Fc fragment of human IgG2 (Fc as tag)
T1 sequence (Q08708 21-183 limits assumed): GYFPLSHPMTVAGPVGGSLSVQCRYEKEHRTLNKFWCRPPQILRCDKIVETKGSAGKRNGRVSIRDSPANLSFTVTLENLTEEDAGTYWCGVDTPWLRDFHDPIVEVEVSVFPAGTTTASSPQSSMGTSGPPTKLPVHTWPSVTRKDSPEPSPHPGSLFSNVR

[2] = target: T2, CD300a-Ig (Homo sapiens, UniProt Q9UGN4); assay: as above; format: binding; details: immobilised lipid; Fc fusion protein as analyte
T2 construct: Ig (Fc) fusion protein, Fc as tag
T2 sequence (Q9UGN4 18-180 limits assumed): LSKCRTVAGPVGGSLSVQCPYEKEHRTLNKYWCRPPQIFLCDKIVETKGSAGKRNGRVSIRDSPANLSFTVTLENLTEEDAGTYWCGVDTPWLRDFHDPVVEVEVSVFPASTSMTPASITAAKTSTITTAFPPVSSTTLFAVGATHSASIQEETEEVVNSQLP

## CCCCCCCC/C=C\CCCCCCCC(=O)O[C@H](COC(=O)CCCCCCCCCCCCCCC)COP(=O)(O)OCCN [PE, 1-palmitoyl-2-oleoyl (PO) phosphatidylethanolamine (POPE)]
[1]
  ELISA on plates coated with pure lipid; SPR on L1-chip liposomes (Biacore T200): CD300c-Ig binds to both PS and PE at the same level
[2]
  ELISA on plates coated with pure lipid; SPR on L1-chip liposomes (Biacore T200): CD300a-Ig predominantly binds to PE
